In one data set the target is SLCO2A1 W565F mutant (Homo sapiens, UniProt Q92959, W565F). In words: 6-CF uptake assay, HEK293F cells expressing SLCO2A1 W565F. Type of data set: cell-based. The conditions noted are these: 50 μM 6-CF.
Data set [1] deals with SLCO2A1. The conditions noted are these: read-out: Km for 6-CF reported in a previous study; cited from earlier work.
In the next data set the target is SLCO2A1 S346A mutant (Homo sapiens, UniProt Q92959, S346A). The format is cell-based.
In another data set the target is SLCO2A1 R445C mutant (Homo sapiens, UniProt Q92959, R445C). The data set can be described thus: 6-CF uptake assay, HEK293F cells expressing SLCO2A1 R445C. The conditions noted are these: 50 μM 6-CF. Type of data set: cell-based.
Another data set addresses SLCO2A1 C448A mutant (Homo sapiens, UniProt Q92959, C448A). The data set can be described thus: 6-CF uptake assay, HEK293F cells expressing SLCO2A1 C448A. Type of data set: cell-based. The conditions noted are these: C448A mutant vs WT.
The next data set has as its target SLCO2A1 C420F mutant (Homo sapiens, UniProt Q92959, C420F). The data set can be described thus: 6-CF uptake assay, HEK293F cells expressing SLCO2A1 C420F. The format is cell-based. The conditions noted are these: C420F mutant vs WT.
In the next data set the target is SLCO2A1 E465K mutant (Homo sapiens, UniProt Q92959, E465K). The data set can be described thus: 6-CF uptake assay, HEK293F cells expressing SLCO2A1 E465K. Type of data set: cell-based. The conditions noted are these: E465K mutant vs WT.
The target of a further data set is SLCO2A1 C143A mutant (Homo sapiens, UniProt Q92959, C143A). The data set can be described thus: 6-CF uptake assay, HEK293F cells expressing SLCO2A1 C143A. Type of data set: cell-based. The settings on record: C143A mutant vs WT.
The next data set concerns the target SLCO2A1 Y90A mutant (Homo sapiens, UniProt Q92959, Y90A). The data set can be described thus: 6-CF uptake assay, HEK293F cells expressing SLCO2A1 Y90A. The format is cell-based. The conditions noted are these: 50 μM 6-CF.
The test system of data set [2] is SLCO2A1. The conditions noted are these: read-out: IC50 in competitively inhibiting radioactive PGE2; pH 7.4; cited from earlier work.
A further data set deals with human SLCO2A1 (Homo sapiens, UniProt Q92959). The data set can be described thus: 6-CF uptake assay in HEK293F cells expressing SLCO2A1 WT.

Turning to 6-Carboxyfluorescein [6-CF], the entries for the “6-CF uptake (percentage of SLCO2A1-WT)” value on SLCO2A1 W565F mutant, at SLCO2A1 R445C mutant and on SLCO2A1 Y90A mutant were roughly 50%, 60% and 60%, respectively. In addition, the Michaelis-Menten constant (Km) in the data set on SLCO2A1 [1] is 270 ± 40.7 µM. For the same molecule, the “increase in 6-CF uptake activity” value at SLCO2A1 S346A mutant worked out at 1.5 fold. The “reduction of the 6-CF uptake activity” value is given as roughly 55% on SLCO2A1 C448A mutant and “approximately 80%” on SLCO2A1 C143A mutant. Moreover, the “decrease of 6-CF uptake activity” value on SLCO2A1 C420F mutant and on SLCO2A1 E465K mutant was “more than 80%” in each case.
`Cc1ccc(C(=O)Nc2ccc(S(=O)(=O)O)c3cc(S(=O)(=O)O)cc(S(=O)(=O)O)c23)cc1NC(=O)c1cccc(NC(=O)Nc2cccc(C(=O)Nc3cc(C(=O)Nc4ccc(S(=O)(=O)O)c5cc(S(=O)(=O)O)cc(S(=O)(=O)O)c45)ccc3C)c2)c1` [suramin]: the half-inhibitory concentration (IC50) with SLCO2A1 [2] was 170 nM; against human SLCO2A1 it was 2210 ± 370 nM. Besides, on human SLCO2A1 (IC50 2.21 μM vs 0.17 μM), the “IC50 (6-CF uptake) relative to IC50 (radioactive PGE2, pH 7.4)” value stood at 13 fold.

Usually Km stands for the concentration of substrate that gives half-maximal velocity. One may read the IC50 as the point on the concentration scale where inhibition reaches its midpoint.

Source of the values: article PMC12398505 (Nature Communications, 2025).
